Laboratory results from US20050288273A1, “Antibacterial agents” (priority 2003, published 2005).
In brackets after ≈: the same amount, converted by molar mass.

Assays:
S. aureus SA-3528 = assay: Cross resistance antibacterial assay (MIC), strain 7; type: cell-based; conditions: Staphylococcus aureus, SA3528; S. aureus SA-3528, multiple drug resistant (MLS); read-out: Minimum Inhibitory Concentrations in Strain 7
Excerpt: (§1) Test C—Cross Resistance Antibacterial Assay

S. pyogenes C-203 = assay: In vivo activity (mouse), median protective dose in lethal systemic infection; conditions: mice
Procedure: Test B—In Vivo Activity (Mouse)
The in vivo activity was obtained when the compounds were tested according to the procedure of Miller, et al. (Proc. Soc. Exp. Biol. Med., 1944; 57:261). The median protective dose (PD50) was determined in mice given lethal systemic infections, as depicted in Table 4.

E. faeciaum EF4-3525 = assay: Cross resistance antibacterial assay (MIC), strain 4; conditions: read-out: Minimum Inhibitory Concentrations in Strain 4
Procedure: (§3) The compounds of the present invention were tested against an assortment of drug resistant organisms described below using standard microtitration techniques (Cohen, et. al., Antimicrob. Agents Chemother., 1985; 28:766; Heifetz, et. al., Antimicrob. Agents Chemother, 1974; 6:124). […] E. faeciaum EF4-3525: Vancomicin resitant strain. • 5. E. faeciaum EF4-3836: Multiple drug resitant strain (lineozolid, AZD2563-R, vancomicin, ampicillin, macrolide-R, quinolone-R, trimeothprim/sulfamethoxazole). • 6.

E. faeciaum EF4-3836 = assay: Cross resistance antibacterial assay (MIC), strain 5; conditions: read-out: Minimum Inhibitory Concentrations in Strain 5
Procedure: as §3

S. aureus SA-2017 = assay: Cross resistance antibacterial assay (MIC), strain 6; type: cell-based; conditions: Staphylococcus aureus, SA2017; S. aureus SA-2017, multiple drug resistant (methicillin, ciprofloxacin); read-out: Minimum Inhibitory Concentrations in Strain 6
Excerpt: as §1

M. catarrhalis BC3534 = assay: Antibacterial assay (MIC), standard microtitration, Gram negative; type: cell-based; conditions: Moraxella catarrhalis, BC3534; Gram negative bacteria; read-out: Minimum Inhibitory Concentrations M. catarrhalis BC3534
Excerpt: (§2) Test A—Antibacterial Assays

E. coli Tol C = assay: as above; type: cell-based; conditions: Escherichia coli, read-out: Minimum Inhibitory Concentrations E. coli Tol C
Excerpt: as §2

H. influenzae HI3542 = assay: as above; type: cell-based; conditions: Haemophilus influenzae, HI3542; Gram negative bacteria; read-out: Minimum Inhibitory Concentrations H. influenzae HI3542
Excerpt: as §2

S. aureus SA-3839 = assay: Cross resistance antibacterial assay (MIC), strain 8; type: cell-based; conditions: Staphylococcus aureus, SA3839; S. aureus SA-3839, multiple drug resistant (linezolid and methicillin); read-out: Minimum Inhibitory Concentrations in Strain 8
Excerpt: as §1

E. faecalis EF-13524 = assay: Cross resistance antibacterial assay (MIC), strain 2; type: cell-based; conditions: Enterococcus faecalis, EF13524; E. faecalis EF-13524, vancomicin resistant strain; read-out: Minimum Inhibitory Concentrations in Strain 2
Excerpt: as §1

S. aureus UC-76 = assay: Antibacterial assay (MIC), standard microtitration, Gram positive; type: cell-based; conditions: Staphylococcus aureus, UC76; Gram positive bacteria; read-out: Minimum Inhibitory Concentrations S. aureus UC-76
Excerpt: as §2

E. faecalis MGH-2 = assay: as above; type: cell-based; conditions: Enterococcus faecalis, MGH2; Gram positive bacteria; read-out: Minimum Inhibitory Concentrations E. faecalis MGH-2
Excerpt: as §2

S pyogenes C203 = assay: as above; type: cell-based; conditions: Gram positive bacteria; read-out: Minimum Inhibitory Concentrations S pyogenes C203
Excerpt: as §2

E. faecalis EF-3838 = assay: Cross resistance antibacterial assay (MIC), strain 3; type: cell-based; conditions: Enterococcus faecalis, EF3838; E. faecalis EF-3838, multiple drug resistant (vancomicin, erythromycin, gentamicin); read-out: Minimum Inhibitory Concentrations in Strain 3
Excerpt: as §1

S. pneumoniae SP-3536 = assay: Cross resistance antibacterial assay (MIC), strain 10; type: cell-based; conditions: Streptococcus pneumoniae, SP3536; S. pneumoniae SP-3536, multiple drug resistant (B-lactamase and macrolide-R); read-out: Minimum Inhibitory Concentrations in Strain 10
Excerpt: as §1

S. aureus SA-3840 = assay: Cross resistance antibacterial assay (MIC), strain 9; type: cell-based; conditions: Staphylococcus aureus, SA3840; S. aureus SA-3840, multiple drug resistant (linezolid and methicillin); read-out: Minimum Inhibitory Concentrations in Strain 9
Excerpt: as §1

S. pyogenes SP1-3541 = assay: Cross resistance antibacterial assay (MIC), strain 12; type: cell-based; conditions: Streptococcus pyogenes, SP13541; S. pyogenes SP1-3541, multiple drug resistant (MLS); read-out: Minimum Inhibitory Concentrations in Strain 12
Excerpt: as §1

S. pneumoniae SP-3561 = assay: Cross resistance antibacterial assay (MIC), strain 11; type: cell-based; conditions: Streptococcus pneumoniae, SP3561; S. pneumoniae SP-3561, multiple drug resistant (penicillin, macrolide-R, tetracycline etc.); read-out: Minimum Inhibitory Concentrations in Strain 11
Excerpt: as §1

H. influenziae Hi-3113 = assay: Cross resistance antibacterial assay (MIC), strain 13; type: cell-based; conditions: H. influenziae Hi-3113, B-lactamase; read-out: Minimum Inhibitory Concentrations in Strain 13
Excerpt: as §1
13. H. influenziae Hi-3113: B-lactamase

SMILES | MIC (S. aureus SA-3528) [µg/mL] | MIC (E. faeciaum EF4-3525) [µg/mL] | MIC (E. faeciaum EF4-3836) [µg/mL] | MIC (S. aureus SA-2017) [µg/mL] | MIC (M. catarrhalis BC3534) [µg/mL] | MIC (E. coli Tol C) [µg/mL] | MIC (H. influenzae HI3542) [µg/mL] | MIC (S. aureus SA-3839) [µg/mL] | MIC (E. faecalis EF-13524) [µg/mL] | MIC (S. aureus UC-76) [µg/mL] | MIC (E. faecalis MGH-2) [µg/mL] | MIC (S pyogenes C203) [µg/mL] | MIC (E. faecalis EF-3838) [µg/mL] | further results
CC(=O)NC[C@H]1CN(c2ccc3c(c2)CCCc2cn[nH]c2-3)C(=O)O1 [Example 3, (S)-N-[2-Oxo-3-(1,4,5,6-tetrahydro-1,2-diaza-benzo[e]azulen-8-yl)oxazolidin-5-ylmethyl]acetamide] | 8 (≈ 23.5 µM) | 0.5 (≈ 1.47 µM) | 1 (≈ 2.94 µM) | 1 (≈ 2.94 µM) | 2 (≈ 5.88 µM) | > 64 | 2 (≈ 5.88 µM) | 16 (≈ 47 µM) | 0.25 (≈ 0.734 µM) | 0.5 (≈ 1.47 µM) | 0.25 (≈ 0.734 µM) | 0.125 (≈ 0.367 µM) | 0.5 (≈ 1.47 µM) | PD50 (median protective dose) (S. pyogenes C-203; S. pyogenes C-203, oral): 6.4 mg/kg; PD50 (median protective dose) (S. pyogenes C-203; S. pyogenes C-203, subcutaneous): 2.1 mg/kg
CC(=O)NC[C@H]1CN(c2ccc3c(c2)CCCc2cnoc2-3)C(=O)O1 [Example 3A, (S)-N-[3-(5,6-dihydro-4H-1-oxa-2-aza-benzo[e]azulen-8-yl)-2-oxo-oxalidin-5-ylmethyl]acetamide] | 48 (≈ 141 µM) | 0.5 (≈ 1.46 µM) | 1 (≈ 2.93 µM) | 0.5 (≈ 1.46 µM) | – | – | – | 4 (≈ 11.7 µM) | 0.25 (≈ 0.732 µM) | – | – | – | 1 (≈ 2.93 µM) | MIC (S. pneumoniae SP-3536): 4 µg/mL (≈ 11.7 µM); MIC (S. aureus SA-3840): 4 µg/mL (≈ 11.7 µM); MIC (S. pyogenes SP1-3541): 0.5 µg/mL (≈ 1.46 µM); MIC (S. pneumoniae SP-3561): 0.25 µg/mL (≈ 0.732 µM); MIC (H. influenziae Hi-3113): 2 µg/mL (≈ 5.86 µM)
CC(C)(C)OC(=O)NC[C@H]1CN(c2ccc3c(c2)CCCc2cn[nH]c2-3)C(=O)O1 [Example 56, (S)-[2-Oxo-3-(1,4,5,6-tetrahydro-1,2-diaza-benzo[e]azulen-8-yl)-oxazolidin-5-ylmethyl]-carbamic acid tert-butyl ester] | – | – | – | – | 16 (≈ 40.2 µM) | > 64 | > 64 | – | – | 1 (≈ 2.51 µM) | 4 (≈ 10 µM) | 4 (≈ 10 µM) | – | melting point: 85 to 100 °C
Br.CC(=O)NC[C@H]1CN(c2ccc3c(c2)CCCc2sc(N)nc2-3)C(=O)O1 [Example 186, (S)-N-[3-(2-Amino-5,6-dihydro-4H-3-thia-1-aza-benzo[e]azulen-8-yl)-2-oxo-oxazolidin-5-ylmethyl]-acetamide hydrobromic acid salt] | – | – | – | – | 8 | > 64 | 4 | – | – | 2 | 1 | 1 | – | –
CC(=O)NC[C@H]1CN(c2ccc3c(c2)CCCc2c-3nn(CCO)c2-c2ccncc2)C(=O)O1 [Example 209, (S)-N-{3-[2-(2-Hydroxy-ethyl)-3-pyridin-4-yl-2,4,5,6-tetrahydro-1,2-diaza-benzo[e]azulen-8-yl]-2-oxo-oxazolidin-5-ylmethyl}-acetamide] | – | – | – | – | > 64 | > 64 | 32 (≈ 69.3 µM) | – | – | 16 (≈ 34.7 µM) | 8 (≈ 17.3 µM) | 4 (≈ 8.67 µM) | – | –
